Reference: ChEMBL document CHEMBL4507260 (2021)
The source made the active and inactive calls. The calls are words filed in the database; no cut-off is given here.

Columns and labels:
[1] = biological target: Cyclin-dependent kinase 19 (Homo sapiens) (UniProt Q9BWU1); settings: Compound concentration 1000.0 nM
[2] = biological target: Cyclin-dependent kinase-like 5 (Homo sapiens) (UniProt O76039); settings: Compound concentration 1000.0 nM
[3] = biological target: Casein kinase I isoform alpha (Homo sapiens) (UniProt P48729); settings: Compound concentration 1000.0 nM
Casein kinase I isoform alpha (Homo sapiens), sequence (P48729 2-337 limits assumed): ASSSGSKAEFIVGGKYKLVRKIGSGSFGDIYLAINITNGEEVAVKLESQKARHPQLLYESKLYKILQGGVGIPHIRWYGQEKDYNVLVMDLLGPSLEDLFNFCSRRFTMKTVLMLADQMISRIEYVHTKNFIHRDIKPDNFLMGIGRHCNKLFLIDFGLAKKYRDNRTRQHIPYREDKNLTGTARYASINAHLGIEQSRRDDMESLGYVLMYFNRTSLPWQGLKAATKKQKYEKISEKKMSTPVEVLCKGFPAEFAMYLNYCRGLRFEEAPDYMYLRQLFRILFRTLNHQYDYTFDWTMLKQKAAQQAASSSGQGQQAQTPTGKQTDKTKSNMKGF

[4] = biological target: Serine/threonine-protein kinase 17B (Homo sapiens) (UniProt O94768); settings: Compound concentration 1000.0 nM
Serine/threonine-protein kinase 17B (Homo sapiens), sequence (O94768 whole entry): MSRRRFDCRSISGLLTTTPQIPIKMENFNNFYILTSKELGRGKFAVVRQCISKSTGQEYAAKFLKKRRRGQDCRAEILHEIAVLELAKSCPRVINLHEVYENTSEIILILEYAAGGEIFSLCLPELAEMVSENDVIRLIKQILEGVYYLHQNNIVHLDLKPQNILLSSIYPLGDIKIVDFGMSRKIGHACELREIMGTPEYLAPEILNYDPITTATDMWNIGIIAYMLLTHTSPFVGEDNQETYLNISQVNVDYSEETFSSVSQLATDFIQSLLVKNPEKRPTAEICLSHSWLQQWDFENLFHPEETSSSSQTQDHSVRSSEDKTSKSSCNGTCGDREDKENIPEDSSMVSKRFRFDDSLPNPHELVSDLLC

[5] = test system: Epidermal growth factor receptor (Homo sapiens), P00533 [UNDEFINED MUTATION]; settings: Compound concentration 1000.0 nM
[6] = test system: Epidermal growth factor receptor (Homo sapiens), P00533 [UNDEFINED MUTATION]; settings: Compound concentration 1000.0 nM; remark: listed apart in the source
[7] = test system: Epidermal growth factor receptor (Homo sapiens), P00533 [L861Q]; settings: Compound concentration 1000.0 nM
[8] = biological target: Mitogen-activated protein kinase 3 (Homo sapiens) (UniProt P27361); settings: Compound concentration 1000.0 nM
Mitogen-activated protein kinase 3 (Homo sapiens), sequence (P27361 whole entry): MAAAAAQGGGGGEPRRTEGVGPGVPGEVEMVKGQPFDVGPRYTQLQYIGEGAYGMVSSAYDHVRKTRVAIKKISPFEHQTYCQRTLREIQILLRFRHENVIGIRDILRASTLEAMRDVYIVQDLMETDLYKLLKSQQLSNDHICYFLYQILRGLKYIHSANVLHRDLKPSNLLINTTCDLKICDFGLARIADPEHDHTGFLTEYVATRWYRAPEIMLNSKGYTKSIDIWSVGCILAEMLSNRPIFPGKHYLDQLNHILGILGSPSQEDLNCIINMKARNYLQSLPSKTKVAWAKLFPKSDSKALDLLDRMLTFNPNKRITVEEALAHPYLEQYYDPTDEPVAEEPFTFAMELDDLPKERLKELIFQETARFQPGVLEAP

[9] = biological target: Inhibitor of nuclear factor kappa-B kinase subunit epsilon (Homo sapiens) (UniProt Q14164); settings: Compound concentration 1000.0 nM
[10] = biological target: Mitogen-activated protein kinase kinase kinase 3 (Homo sapiens) (UniProt Q99759); settings: Compound concentration 1000.0 nM
Mitogen-activated protein kinase kinase kinase 3 (Homo sapiens), sequence (Q99759 whole entry): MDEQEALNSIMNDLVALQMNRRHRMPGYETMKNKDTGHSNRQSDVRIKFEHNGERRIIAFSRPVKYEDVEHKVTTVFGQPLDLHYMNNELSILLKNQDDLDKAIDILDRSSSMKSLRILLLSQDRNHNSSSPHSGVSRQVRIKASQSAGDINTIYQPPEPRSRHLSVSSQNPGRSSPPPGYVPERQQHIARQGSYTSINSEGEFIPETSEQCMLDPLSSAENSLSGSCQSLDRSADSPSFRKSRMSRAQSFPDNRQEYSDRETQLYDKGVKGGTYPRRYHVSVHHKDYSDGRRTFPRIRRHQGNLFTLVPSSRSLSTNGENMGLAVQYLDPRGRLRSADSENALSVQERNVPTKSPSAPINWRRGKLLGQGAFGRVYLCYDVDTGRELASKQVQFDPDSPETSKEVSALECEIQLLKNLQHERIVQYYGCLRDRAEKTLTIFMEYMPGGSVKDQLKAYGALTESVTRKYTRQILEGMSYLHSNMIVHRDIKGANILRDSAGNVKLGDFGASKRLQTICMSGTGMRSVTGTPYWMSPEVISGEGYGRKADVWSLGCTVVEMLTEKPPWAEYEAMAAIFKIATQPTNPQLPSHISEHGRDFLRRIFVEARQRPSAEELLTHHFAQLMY

[11] = biological target: MAP kinase-activated protein kinase 5 (Homo sapiens) (UniProt Q8IW41); settings: Compound concentration 1000.0 nM
MAP kinase-activated protein kinase 5 (Homo sapiens), sequence (Q8IW41 whole entry, the tested form may be a part): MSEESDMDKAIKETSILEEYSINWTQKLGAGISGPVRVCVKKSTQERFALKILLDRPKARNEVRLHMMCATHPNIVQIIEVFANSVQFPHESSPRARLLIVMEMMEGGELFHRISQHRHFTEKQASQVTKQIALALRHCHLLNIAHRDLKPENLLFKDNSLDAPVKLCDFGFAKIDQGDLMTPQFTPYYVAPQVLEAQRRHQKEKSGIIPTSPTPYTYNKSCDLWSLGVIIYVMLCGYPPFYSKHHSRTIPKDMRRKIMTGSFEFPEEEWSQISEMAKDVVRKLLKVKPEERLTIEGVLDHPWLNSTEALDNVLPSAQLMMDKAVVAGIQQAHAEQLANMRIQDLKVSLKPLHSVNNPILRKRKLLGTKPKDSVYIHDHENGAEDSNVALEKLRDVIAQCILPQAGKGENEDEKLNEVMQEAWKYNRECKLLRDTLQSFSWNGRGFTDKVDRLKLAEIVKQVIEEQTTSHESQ

[12] = biological target: Phosphatidylinositol 4-phosphate 3-kinase C2 domain-containing subunit beta (Homo sapiens) (UniProt O00750); settings: Compound concentration 1000.0 nM
Phosphatidylinositol 4-phosphate 3-kinase C2 domain-containing subunit beta (Homo sapiens), sequence (O00750 whole entry, the tested form may be a part): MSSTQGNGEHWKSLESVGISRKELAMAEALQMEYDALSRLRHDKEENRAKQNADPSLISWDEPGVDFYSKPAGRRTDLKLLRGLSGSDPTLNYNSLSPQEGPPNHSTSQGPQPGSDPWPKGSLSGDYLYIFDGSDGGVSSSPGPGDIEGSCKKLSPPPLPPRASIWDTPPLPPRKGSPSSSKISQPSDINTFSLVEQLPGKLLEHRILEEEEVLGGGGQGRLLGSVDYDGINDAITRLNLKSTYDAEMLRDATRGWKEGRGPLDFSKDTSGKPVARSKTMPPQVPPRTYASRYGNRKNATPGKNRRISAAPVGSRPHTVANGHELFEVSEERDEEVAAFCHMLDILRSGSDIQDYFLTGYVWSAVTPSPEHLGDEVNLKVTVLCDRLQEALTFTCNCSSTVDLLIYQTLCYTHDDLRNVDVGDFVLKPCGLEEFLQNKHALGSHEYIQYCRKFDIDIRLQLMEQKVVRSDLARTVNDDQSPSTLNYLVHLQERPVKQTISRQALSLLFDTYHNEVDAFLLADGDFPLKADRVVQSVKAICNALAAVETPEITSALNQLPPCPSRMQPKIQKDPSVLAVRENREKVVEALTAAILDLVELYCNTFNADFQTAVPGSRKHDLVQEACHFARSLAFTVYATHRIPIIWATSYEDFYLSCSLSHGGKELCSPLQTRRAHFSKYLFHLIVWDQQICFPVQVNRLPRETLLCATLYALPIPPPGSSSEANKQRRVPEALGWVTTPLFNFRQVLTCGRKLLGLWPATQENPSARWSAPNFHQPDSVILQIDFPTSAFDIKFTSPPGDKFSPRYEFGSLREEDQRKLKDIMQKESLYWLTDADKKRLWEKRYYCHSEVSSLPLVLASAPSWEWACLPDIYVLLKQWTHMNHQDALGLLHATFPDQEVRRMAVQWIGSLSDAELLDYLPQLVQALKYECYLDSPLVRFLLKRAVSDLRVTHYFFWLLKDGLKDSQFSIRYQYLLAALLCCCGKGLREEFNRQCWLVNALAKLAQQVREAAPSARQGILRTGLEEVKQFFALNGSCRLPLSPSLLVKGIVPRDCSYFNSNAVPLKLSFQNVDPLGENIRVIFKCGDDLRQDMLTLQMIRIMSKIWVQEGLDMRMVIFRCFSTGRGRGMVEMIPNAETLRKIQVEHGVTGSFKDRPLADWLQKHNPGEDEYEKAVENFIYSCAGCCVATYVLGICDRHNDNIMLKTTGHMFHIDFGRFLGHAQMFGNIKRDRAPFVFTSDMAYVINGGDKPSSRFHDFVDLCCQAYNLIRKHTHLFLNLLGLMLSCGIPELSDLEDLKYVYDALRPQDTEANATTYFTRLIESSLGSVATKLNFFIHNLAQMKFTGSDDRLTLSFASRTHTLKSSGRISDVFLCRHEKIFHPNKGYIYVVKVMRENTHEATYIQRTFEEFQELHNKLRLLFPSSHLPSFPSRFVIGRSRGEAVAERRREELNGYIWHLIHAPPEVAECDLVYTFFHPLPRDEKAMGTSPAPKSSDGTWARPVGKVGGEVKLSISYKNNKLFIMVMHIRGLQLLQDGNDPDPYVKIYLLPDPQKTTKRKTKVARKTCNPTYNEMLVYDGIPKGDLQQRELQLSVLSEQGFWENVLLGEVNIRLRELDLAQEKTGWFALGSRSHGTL

[13] = biological target: Ribosomal protein S6 kinase alpha-3 (Homo sapiens) (UniProt P51812); settings: Compound concentration 1000.0 nM
Ribosomal protein S6 kinase alpha-3 (Homo sapiens), sequence (P51812 whole entry): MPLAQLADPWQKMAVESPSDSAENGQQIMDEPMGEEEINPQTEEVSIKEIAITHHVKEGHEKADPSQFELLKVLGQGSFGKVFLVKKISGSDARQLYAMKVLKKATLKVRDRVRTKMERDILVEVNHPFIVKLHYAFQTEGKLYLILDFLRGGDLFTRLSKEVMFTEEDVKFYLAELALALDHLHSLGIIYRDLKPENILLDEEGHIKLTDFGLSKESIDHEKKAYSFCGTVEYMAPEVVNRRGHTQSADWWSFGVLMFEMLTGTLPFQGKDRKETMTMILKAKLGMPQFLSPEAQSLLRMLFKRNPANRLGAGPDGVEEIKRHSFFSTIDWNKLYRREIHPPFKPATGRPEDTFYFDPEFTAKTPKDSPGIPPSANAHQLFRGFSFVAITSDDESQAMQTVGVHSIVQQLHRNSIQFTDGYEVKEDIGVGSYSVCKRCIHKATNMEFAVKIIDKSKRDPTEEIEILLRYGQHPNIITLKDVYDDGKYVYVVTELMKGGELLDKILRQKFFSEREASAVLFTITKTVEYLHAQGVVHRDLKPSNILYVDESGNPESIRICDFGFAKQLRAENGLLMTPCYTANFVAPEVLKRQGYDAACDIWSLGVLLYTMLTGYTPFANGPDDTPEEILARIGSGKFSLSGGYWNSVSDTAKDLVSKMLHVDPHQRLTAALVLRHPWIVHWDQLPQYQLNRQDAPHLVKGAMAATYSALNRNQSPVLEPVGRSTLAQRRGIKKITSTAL

[14] = biological target: Serine/threonine-protein kinase WNK4 (Homo sapiens) (UniProt Q96J92); settings: Compound concentration 1000.0 nM
D(4) dopamine receptor [15] = biological target: T1, D(4) dopamine receptor (Homo sapiens, UniProt P21917); test: Radioligand assay using 3[H] A-369508
T1 sequence (P21917 whole entry): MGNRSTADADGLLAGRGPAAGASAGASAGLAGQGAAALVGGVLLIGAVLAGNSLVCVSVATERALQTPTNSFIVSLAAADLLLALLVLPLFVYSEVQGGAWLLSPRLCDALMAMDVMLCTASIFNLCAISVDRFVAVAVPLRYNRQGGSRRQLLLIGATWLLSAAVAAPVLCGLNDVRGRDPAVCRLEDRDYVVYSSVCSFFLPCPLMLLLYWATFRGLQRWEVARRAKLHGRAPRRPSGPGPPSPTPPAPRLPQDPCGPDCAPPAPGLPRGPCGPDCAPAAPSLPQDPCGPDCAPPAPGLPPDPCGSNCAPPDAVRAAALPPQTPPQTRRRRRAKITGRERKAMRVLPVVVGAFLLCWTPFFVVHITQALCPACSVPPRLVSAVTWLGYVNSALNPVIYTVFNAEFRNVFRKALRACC

D(4) dopamine receptor [16] = biological target: T1, D(4) dopamine receptor; test: Radioligand assay (DRD4.4)
[17] = biological target: Adrenergic receptor alpha-2 (Homo sapiens) (UniProt P08913+P18825+P18089); test: a 2 CEREP ligand profiling; type: protein assay; settings: Compound concentration 10.0 uM
[18] = biological target: 5-hydroxytryptamine receptor 1A (Homo sapiens) (UniProt P08908); test: 5-HT1A CEREP ligand profiling; settings: Compound concentration 10.0 uM
[19] = biological target: 5-hydroxytryptamine receptor 5A (Homo sapiens) (UniProt P47898); test: 5-HT5A CEREP ligand profiling; settings: Compound concentration 10.0 uM
[20] = biological target: Voltage-gated L-type calcium channel (Ca2+ channel) (Homo sapiens, UniProt O60840+Q01668+Q13698+Q13936); test: Ca2+ channel CEREP ligand profiling; type: protein assay; settings: compound concentration 10 uM
[21] = biological target: Sodium-dependent noradrenaline transporter (Homo sapiens) (UniProt P23975); settings: Compound concentration 10.0 uM
Description: NE transporter CEREP ligand profiling

[22] = biological target: Natriuretic peptides A (Homo sapiens) (UniProt P01160); settings: Compound concentration 10.0 uM
Natriuretic peptides A (Homo sapiens), sequence (P01160 whole entry): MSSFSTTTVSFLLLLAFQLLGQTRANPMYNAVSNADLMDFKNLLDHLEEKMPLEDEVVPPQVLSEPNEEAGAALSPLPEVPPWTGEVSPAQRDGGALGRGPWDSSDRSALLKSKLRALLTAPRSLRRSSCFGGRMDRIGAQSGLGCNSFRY
Description: ANP CEREP ligand profiling

[23] = biological target: Translocator protein (Rattus norvegicus) (UniProt P16257); settings: Compound concentration 10.0 uM
Translocator protein (Rattus norvegicus), sequence (P16257 whole entry, looked up): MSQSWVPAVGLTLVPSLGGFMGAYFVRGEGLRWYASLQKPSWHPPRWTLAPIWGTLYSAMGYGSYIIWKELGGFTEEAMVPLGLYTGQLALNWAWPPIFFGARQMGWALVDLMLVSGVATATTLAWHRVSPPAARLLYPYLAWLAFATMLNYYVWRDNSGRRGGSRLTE
Description: BZD (peripheral) CEREP ligand profiling

[24] = biological target: B2 bradykinin receptor (Homo sapiens) (UniProt P30411); settings: Compound concentration 10.0 uM
Description: B2 CEREP ligand profiling

[25] = biological target: Calcitonin-gene-related peptide receptor, CALCRL/RAMP1 (Homo sapiens) (UniProt O60894+Q16602); settings: Compound concentration 10.0 uM
Description: CGRP CEREP ligand profiling

[26] = biological target: Cholecystokinin receptor type A (Homo sapiens) (UniProt P32238); settings: Compound concentration 10.0 uM
Description: CCKA (CCK1) CEREP ligand profiling

[27] = biological target: D(2) dopamine receptor (Homo sapiens) (UniProt P14416); settings: Compound concentration 10.0 uM
Description: D2 CEREP ligand profiling

[28] = biological target: Endothelin-1 receptor (Homo sapiens) (UniProt P25101); settings: Compound concentration 10.0 uM
Description: ETA CEREP ligand profiling

[29] = biological target: Endothelin receptor type B (Homo sapiens) (UniProt P24530); settings: Compound concentration 10.0 uM
Description: ETB CEREP ligand profiling

[30] = biological target: Galanin receptor type 1 (Homo sapiens) (UniProt P47211); settings: Compound concentration 10.0 uM
Description: GAL1 CEREP ligand profiling

[31] = biological target: Muscarinic acetylcholine receptor M3 (Homo sapiens) (UniProt P20309); settings: Compound concentration 10.0 uM
Description: M3 CEREP ligand profiling

[32] = biological target: Substance-P receptor (Homo sapiens) (UniProt P25103); settings: Compound concentration 10.0 uM
Description: NK1 CEREP ligand profiling

[33] = biological target: Thromboxane A2 receptor (Homo sapiens) (UniProt P21731); settings: Compound concentration 10.0 uM
Description: TXA2/PGH2 CEREP ligand profiling

[34] = biological target: P2X receptor (Rattus norvegicus) (UniProt P51579+P49653+P51578+Q64663+P47824+P51577+P49654); settings: Compound concentration 10.0 uM
Description: P2X CEREP ligand profiling

[35] = biological target: 5-hydroxytryptamine receptor 2A (Homo sapiens) (UniProt P28223); settings: Compound concentration 10.0 uM
Description: 5-HT2A CEREP ligand profiling

[36] = biological target: 5-hydroxytryptamine receptor 2C (Homo sapiens) (UniProt P28335); settings: Compound concentration 10.0 uM
Description: 5-HT2C CEREP ligand profiling

[37] = biological target: Somatostatin receptor (Homo sapiens) (UniProt P35346+P30874+P31391+P30872+P32745); settings: Compound concentration 10.0 uM
Description: Somatostatin CEREP ligand profiling

[38] = biological target: GABA-A receptor; anion channel (Homo sapiens) (UniProt P14867+P47870+P18507+P28472+P48169+Q99928+Q9UN88+P34903+O00591+O14764+Q8N1C3+P18505+P78334+P47869+P31644+Q16445); settings: Compound concentration 10.0 uM
Description: Cl- channel CEREP ligand profiling

CSc1cccnc1N1CCN(Cc2nc3ccccc3[nH]2)CC1 [A-769]
residual activity [1]: 96% | residual activity [2]: 76% | residual activity [3]: 72% | residual activity [4]: 100% | residual activity [5]: 100% | residual activity [6]: 82% | residual activity [7]: 100% | residual activity [8]: 99% | residual activity [9]: 81% | residual activity [10]: 83% | residual activity [11]: 84% | residual activity [12]: 94% | residual activity [13]: 77% | residual activity [14]: 91%

c1ccc(N2CCN(Cc3nc4ccccc4[nH]3)CC2)nc1 [ABT-724]
Ki (D(4) dopamine receptor [15]): 57.5 nM (active) | Ki (D(4) dopamine receptor [16]): 63.6 nM (active) | inhibition [17]: 21% | inhibition [18]: 73% | inhibition [19]: 21% | inhibition at 10 µM [20]: < 10% (not active) | residual activity [1]: 87% | residual activity [2]: 100% | residual activity [3]: 93% | residual activity [4]: 100% | residual activity [5]: 100% | residual activity [7]: 74% | residual activity [8]: 100% | residual activity [9]: 100% | residual activity [10]: 100% | residual activity [11]: 100% | residual activity [12]: 85% | residual activity [13]: 100% | residual activity [14]: 100% | inhibition [21]: < 10% | inhibition [22]: < 10% | inhibition [23]: < 10% | inhibition [24]: < 10% | inhibition [25]: < 10% | inhibition [26]: < 10% | inhibition [27]: < 10% | inhibition [28]: < 10% | inhibition [29]: < 10% | inhibition [30]: < 10% | inhibition [31]: < 10% | inhibition [32]: < 10% | inhibition [33]: < 10% | inhibition [34]: < 10% | inhibition [35]: < 10% | inhibition [36]: 10% | inhibition [37]: < 10% | inhibition [38]: < 10%
